Several values for one entry are separate records, joined by “and”; a condition that tells them apart may be missing. Equal entries are not always repeated. Inconclusive results and toxic doses are left out.
System: L1210 leukemia ip in BDF1 mice, survival T/C
Test: NCI In Vivo Anticancer Drug Screen. Data for tumor model L1210 Leukemia (intraperitoneal) in B6D2F1 (BDF1) mice
Conditions: endpoint: mean survival time, higher = longer survival
Summary of the method: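 Transplanted-tumor mice were given test agent; controls received vehicle only. Survival readings from the two groups were divided (treated over control).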

[1] = dose: 100.0 mg/kg/injection, schedule: Q01DX001 (ip), vehicle: saline
[2] = dose: 200.0 mg/kg/injection, schedule: Q01DX001 (ip), vehicle: saline
[3] = dose: 400.0 mg/kg/injection, schedule: Q01DX001 (ip), vehicle: saline
[4] = dose: 100.0 mg/kg/injection, schedule: Q01DX009 (ip), vehicle: saline with Tween-80
[5] = dose: 100.0 mg/kg/injection, schedule: Q04DX003 (ip), vehicle: saline with Tween-80
[6] = dose: 200.0 mg/kg/injection, schedule: Q01DX009 (ip), vehicle: saline with Tween-80
[7] = dose: 200.0 mg/kg/injection, schedule: Q04DX003 (ip), vehicle: saline with Tween-80
[8] = dose: 100.0 mg/kg/injection, schedule: Q01DX001 (ip), vehicle: Klucel (hydroxypropylcellulose) (HPC)
[9] = dose: 200.0 mg/kg/injection, schedule: Q01DX001 (ip), vehicle: Klucel (hydroxypropylcellulose) (HPC)
[10] = dose: 400.0 mg/kg/injection, schedule: Q01DX001 (ip), vehicle: Klucel (hydroxypropylcellulose) (HPC)
[11] = dose: 100.0 mg/kg/injection, schedule: Q04DX002 (ip), vehicle: Klucel (hydroxypropylcellulose) (HPC)
[12] = dose: 200.0 mg/kg/injection, schedule: Q04DX002 (ip), vehicle: Klucel (hydroxypropylcellulose) (HPC)
[13] = dose: 400.0 mg/kg/injection, schedule: Q04DX002 (ip), vehicle: Klucel (hydroxypropylcellulose) (HPC)
[14] = dose: 6.25 mg/kg/injection, schedule: Q01DX009 (ip), vehicle: saline with Tween-80
[15] = dose: 12.5 mg/kg/injection, schedule: Q01DX009 (ip), vehicle: saline with Tween-80
[16] = dose: 25.0 mg/kg/injection, schedule: Q01DX009 (ip), vehicle: saline with Tween-80

COC(=O)C1OC1c1cc(Br)ccc1OC (centres undefined)
T/C [1]: 102 % of control | T/C [2]: 103 % of control | T/C [3]: 102 % of control

C=CCOCC(O)CN(C)CC1CCCO1 (centres undefined)
T/C (dose: 100.0 mg/kg/injection, schedule: Q01DX009 (ip), vehicle: saline): 95 % of control | T/C (dose: 100.0 mg/kg/injection, schedule: Q04DX003 (ip), vehicle: saline): 98 % of control | T/C (dose: 200.0 mg/kg/injection, schedule: Q01DX009 (ip), vehicle: saline): 95 % of control | T/C (dose: 200.0 mg/kg/injection, schedule: Q04DX003 (ip), vehicle: saline): 86 % of control

O=C1CCC(=O)N1c1ccc([I+]c2ccc(N3C(=O)CCC3=O)cc2)cc1
T/C (dose: 50.0 mg/kg/injection, schedule: Q01DX001 (ip), vehicle: saline): 103 % of control | T/C [1]: 103 % of control | T/C [2]: 105 % of control | T/C [3]: 103 % of control

O=C1/C(=C/c2ccccc2)Cc2ccccc21
T/C [4]: 95 % of control | T/C [5]: 101 % of control | T/C [6]: 95 % of control | T/C [7]: 95 % of control | T/C (dose: 400.0 mg/kg/injection, schedule: Q01DX009 (ip), vehicle: saline with Tween-80): 95 % of control | T/C (dose: 400.0 mg/kg/injection, schedule: Q04DX003 (ip), vehicle: saline with Tween-80): 109 % of control

CC1CN=C(c2ccc(NC(=O)c3ccc(C(=O)Nc4ccc(C5=NCC(C)CN5)cc4)cc3)cc2)NC1 (centres undefined)
T/C (dose: 0.12 mg/kg/injection, schedule: Q01DX015 (ip), vehicle: water): 100 % of control | T/C (dose: 0.25 mg/kg/injection, schedule: Q01DX015 (ip), vehicle: water): 102 % of control | T/C (dose: 0.5 mg/kg/injection, schedule: Q01DX015 (ip), vehicle: water): 104 % of control | T/C (dose: 1.0 mg/kg/injection, schedule: Q01DX015 (ip), vehicle: water): 104 % of control | T/C (dose: 2.0 mg/kg/injection, schedule: Q01DX015 (ip), vehicle: water): 122 % of control | T/C (dose: 4.0 mg/kg/injection, schedule: Q01DX015 (ip), vehicle: water): 114 % of control

COC(=O)c1ccc(Cl)cc1OCC(=O)Nc1ccccc1
T/C [8]: 97 % of control | T/C [9]: 103 % of control | T/C [10]: 93 % of control

CC(=O)O[C@@H]1CC[C@]2(C)C(=CC[C@@H]3C4CC5O[C@]6(CCC(C)CN6)C(C)C5[C@]4(C)CCC32)C1 (some centres undefined)
T/C [11]: 93 % of control | T/C [12]: 89 % of control | T/C [13]: 93 % of control

CC(C)C(C#N)(CCCCN1CCOCC1)c1cccc2ccccc12 (centres undefined)
T/C (dose: 25.0 mg/kg/injection, schedule: Q04DX003 (ip), vehicle: Klucel (hydroxypropylcellulose) (HPC)): 93 % of control | T/C (dose: 50.0 mg/kg/injection, schedule: Q04DX003 (ip), vehicle: Klucel (hydroxypropylcellulose) (HPC)): 103 % of control | T/C (dose: 100.0 mg/kg/injection, schedule: Q04DX003 (ip), vehicle: Klucel (hydroxypropylcellulose) (HPC)): 92 % of control

Cc1cccc(OCCOc2cccc(C)c2)c1
T/C [1]: 98 % of control | T/C [2]: 94 % of control

CSc1ncc(C#N)c(N)n1
T/C (dose: 50.0 mg/kg/injection, schedule: Q01DX009 (ip), vehicle: saline with Tween-80): 98 % of control | T/C [4]: 93 % of control | T/C [5]: 97 % of control | T/C [6]: 104 % of control | T/C [7]: 94 % of control

COCC(=O)Oc1cc(-c2ccc(C)cc2C)c(OC(=O)COC)c(-c2ccc(C)cc2C)c1
T/C (dose: 75.0 mg/kg/injection, schedule: Q04DX003 (ip), vehicle: Klucel (hydroxypropylcellulose) (HPC)): 90 % of control | T/C [8]: 90 % of control | T/C (dose: 150.0 mg/kg/injection, schedule: Q04DX003 (ip), vehicle: Klucel (hydroxypropylcellulose) (HPC)): 87 % of control | T/C [9]: 91 % of control | T/C (dose: 300.0 mg/kg/injection, schedule: Q04DX003 (ip), vehicle: Klucel (hydroxypropylcellulose) (HPC)): 93 % of control and 94 % of control | T/C [10]: 101 % of control

CC(C)([CH2][Sn]([CH2]C(C)(C)c1ccccc1)[CH2]C(C)(C)c1ccccc1)c1ccccc1.CC(C)([CH2][Sn]([CH2]C(C)(C)c1ccccc1)[CH2]C(C)(C)c1ccccc1)c1ccccc1
T/C (dose: 75.0 mg/kg/injection, schedule: Q01DX001 (ip), vehicle: other): 101 % of control | T/C (dose: 150.0 mg/kg/injection, schedule: Q01DX001 (ip), vehicle: other): 106 % of control | T/C (dose: 300.0 mg/kg/injection, schedule: Q01DX001 (ip), vehicle: other): 94 % of control

CNS(=O)(=O)c1ccccc1C(O)(c1ccccc1)c1ccccc1
T/C [1]: 94 % of control | T/C [2]: 100 % of control | T/C [3]: 111 % of control

CNC(=S)N(C)c1ccccc1
T/C [11]: 100 % of control | T/C [12]: 107 % of control | T/C [13]: 104 % of control

C1=C\CCCCCCCC/1
T/C [14]: 93 % of control | T/C [15]: 104 % of control | T/C [16]: 98 % of control | T/C [1]: 101 % of control | T/C [2]: 101 % of control | T/C [3]: 95 % of control

O=C1CCCCC1Nc1ccc([N+](=O)[O-])cc1 (centres undefined)
T/C [1]: 87 % of control | T/C [2]: 93 % of control | T/C [3]: 95 % of control

CC(=O)OC1CC(OC2C(O)CC(OC3C(O)CC(OC4CCC5(C)C(CCC6C5CC(O)C5(C)C(C7=CC(=O)OC7)CCC65O)C4)OC3C)OC2C)OC(C)C1O (centres undefined) (tested in a mixture with another compound)
T/C (dose: 100.0 mg/kg/injection, schedule: Q01DX001 (sc), vehicle: steriod suspending solution): 97 % of control | T/C (dose: 200.0 mg/kg/injection, schedule: Q01DX001 (sc), vehicle: steriod suspending solution): 101 % of control

COc1c(NC(=O)Nc2ccccc2C)cccc1[N+](=O)[O-]
T/C [14]: 100 % of control | T/C (dose: 6.25 mg/kg/injection, schedule: Q04DX002 (ip), vehicle: saline with Tween-80): 96 % of control | T/C [15]: 92 % of control | T/C (dose: 12.5 mg/kg/injection, schedule: Q04DX002 (ip), vehicle: saline with Tween-80): 93 % of control | T/C [16]: 88 % of control | T/C (dose: 25.0 mg/kg/injection, schedule: Q04DX002 (ip), vehicle: saline with Tween-80): 100 % of control

O=NN(CCCl)C(=O)NCC1CCC(CNC(=O)N(CCCl)N=O)CC1 (centres undefined)
T/C (dose: 6.2 mg/kg/injection, schedule: Q01DX009 (ip), vehicle: carboxymethylcellulose (CMC)): 113 % of control | T/C (dose: 12.5 mg/kg/injection, schedule: Q01DX009 (ip), vehicle: carboxymethylcellulose (CMC)): 111 % of control | T/C (dose: 25.0 mg/kg/injection, schedule: Q01DX009 (ip), vehicle: Klucel (hydroxypropylcellulose) (HPC)): 101 % of control | T/C (dose: 25.0 mg/kg/injection, schedule: Q01DX009 (ip), vehicle: carboxymethylcellulose (CMC)): 122 % of control | T/C (dose: 50.0 mg/kg/injection, schedule: Q01DX009 (ip), vehicle: Klucel (hydroxypropylcellulose) (HPC)): 98 % of control | T/C (dose: 53.0 mg/kg/injection, schedule: Q01DX001 (ip), vehicle: carboxymethylcellulose (CMC)): 117 % of control | T/C (dose: 80.0 mg/kg/injection, schedule: Q01DX001 (ip), vehicle: carboxymethylcellulose (CMC)): 117 % of control | T/C (dose: 100.0 mg/kg/injection, schedule: Q01DX009 (ip), vehicle: Klucel (hydroxypropylcellulose) (HPC)): 109 % of control | T/C (dose: 177.0 mg/kg/injection, schedule: Q01DX001 (ip), vehicle: carboxymethylcellulose (CMC)): 150 % of control | T/C (dose: 177.0 mg/kg/injection, schedule: Q01DX009 (ip), vehicle: carboxymethylcellulose (CMC)): 278 % of control | T/C (dose: 266.0 mg/kg/injection, schedule: Q01DX001 (ip), vehicle: carboxymethylcellulose (CMC)): 225 % of control | T/C (dose: 266.0 mg/kg/injection, schedule: Q01DX009 (ip), vehicle: carboxymethylcellulose (CMC)): 188 % of control | T/C (dose: 400.0 mg/kg/injection, schedule: Q01DX001 (ip), vehicle: carboxymethylcellulose (CMC)): 275 % of control | T/C (dose: 400.0 mg/kg/injection, schedule: Q01DX009 (ip), vehicle: carboxymethylcellulose (CMC)): 103 % of control | T/C (dose: 600.0 mg/kg/injection, schedule: Q01DX001 (ip), vehicle: carboxymethylcellulose (CMC)): 250 % of control

CCCCCCCCCCC1CC2CCCC3CCC4CCCC1C4C32 (centres undefined)
T/C (dose: 100.0 mg/kg/injection, schedule: Q01DX001 (ip), vehicle: saline with Tween-80): 95 % of control | T/C (dose: 200.0 mg/kg/injection, schedule: Q01DX001 (ip), vehicle: saline with Tween-80): 108 % of control | T/C (dose: 400.0 mg/kg/injection, schedule: Q01DX001 (ip), vehicle: saline with Tween-80): 100 % of control

Source: PubChem BioAssay AID248 (DTP/NCI, 2004)
